# From patent US20090124657A1, “PHARMACEUTICAL COMPOSITIONS COMPRISING MONTELUKAST” (priority 2007, published 2009)
# Test: Susceptibility of montelukast sodium to degradation
# Type: physicochemical
smiles,measurement,setting,value
"CC(C)(O)c1ccccc1CC[C@@H](SCC1(CC(=O)O)CC1)c1cccc(/C=C/c2ccc3ccc(Cl)cc3n2)c1 [Montelukast sodium, [R-(E)]-1-[[[1-[3-[2-(7-chloro-2-quinolinyl)ethenyl]phenyl]-3-[2-(1-hydroxy-1-methylethyl)phenyl]propyl]thio]methyl]cyclopropaneacetic acid]",Susceptibility to oxidative degradation (including atmospheric oxygen),significant increase in mok-3 sulfoxide impurity,highly susceptible
same,Susceptibility to acid hydrolysis,significant increase in styrene impurity,highly susceptible
